Data published in patent US7417048B2, “Aryl-substituted derivatives of cycloalkyl and branched chain alkyl carboxylic acids useful as antinociceptive drugs for peripheral targets” (priority 2003, dated 2008).

Test system: tongue of the test subject
Experiment: Cold sensation threshold on tongue, impregnated filter paper
Format: in vivo, human
Conditions: filter paper 1 × 1 cm on tongue, 30 sec, presence or absence of cooling effect
For `CCOC(=O)c1ccc(NC(=O)C2CC(C)CCC2C(C)C)cc1` (stereo not drawn) [N-(4′-ethoxycarbonylphenyl)-2-isopropyl-5-methylcyclohexanecarboxamide], the “Cold Sensation Threshold on Tongue” value was 5 µg. For `COc1ccc(NC(=O)C2CC3CCC2(C)C3(C)C)cc1` (stereo not drawn) [N-(4′-methoxyphenyl)-1,7,7-trimethylbicyclo[2.2.1]heptane-2-carboxamide], the “Cold Sensation Threshold on Tongue” value was 8 µg. For `COc1ccc(NC(=O)C(C)(C(C)C)C(C)C)cc1` [N-(4′-methoxyphenyl)-2-isopropyl-2,3-dimethylbutyramide], the “Cold Sensation Threshold on Tongue” value was 0.5 µg. With `CC(C)C1(C(=O)Nc2cccc(O)c2)CCCCCC1` [N-(3′-hydroxyphenyl)-1-isopropylcycloheptanecarboxamide] the “Cold Sensation Threshold on Tongue” value was 10 µg. In the case of `COc1ccc(NC(=O)C2C3C=CC(C3)C2CC(C)C)c(OC)c1` (stereo not drawn) [N-(2′,4′-dimethoxyphenyl)-3-isobutylbicyclo[2.2.1]hept-5-ene-2-carboxamide], the “Cold Sensation Threshold on Tongue” value is reported as 1 µg. For `Cc1ccc(NC(=O)C2(C(C)C)CCCCCC2)cc1C` [N-(3′,4′-dimethylphenyl)-1-isopropylcycloheptanecarboxamide], the “Cold Sensation Threshold on Tongue” value was 15 µg. For `CCC1(C(=O)Nc2ccc(OC)cc2)CCCCCC1C` (stereo not drawn) [N-(4′-methoxyphenyl)-1-ethyl-2-methylcycloheptanecarboxamide], the “Cold Sensation Threshold on Tongue” value was 6 µg. In the case of `Cc1ccc(NC(=O)C2(C(C)C)CCCCCC2)c(C)c1` [N-(2′,4′-dimethylphenyl)-1-isopropylcycloheptanecarboxamide], the “Cold Sensation Threshold on Tongue” value is reported as 15 µg. With `CC1CCC(C(C)C)C(C(=O)Nc2ccc([N+](=O)[O-])cc2)C1` (stereo not drawn) [N-(4′-nitrophenyl)-2-isopropyl-5-methylcyclohexanecarboxamide] the “Cold Sensation Threshold on Tongue” value was 0.3 µg. With `COc1ccc(NC(=O)C2C3C=CC(C3)C2CC(C)C)c(C)c1` (stereo not drawn) [N-(2′-methyl-4′-methoxyphenyl)-3-isobutylbicyclo[2.2.1]hept-5-ene-2-carboxamide] the “Cold Sensation Threshold on Tongue” value was 1 µg. With `CC1CCC(C(C)C)C(C(=O)Nc2ccc(Cl)cc2)C1` (stereo not drawn) [N-(4′-chlorophenyl)-2-isopropyl-5-methylcyclohexanecarboxamide] the “Cold Sensation Threshold on Tongue” value was 8 µg. In the case of `CC1CCC(C(C)C)C(C(=O)Nc2cccc3ccccc23)C1` (stereo not drawn) [N-(1′-naphthyl)-2-isopropyl-5-methylcyclohexanecarboxamide], the “Cold Sensation Threshold on Tongue” value is reported as 6 µg. For `CC(=O)c1ccc(NC(=O)C2CC(C)CCC2C(C)C)cc1` (stereo not drawn) [N-(4′-acetylphenyl)-2-isopropyl-5-methylcyclohexanecarboxamide], the “Cold Sensation Threshold on Tongue” value was 2 µg. In the case of `COc1ccc(NC(=O)C2(C(C)C)CCCCCC2)cc1OC` [N-(3′,4′-dimethoxyphenyl)-1-isopropylcycloheptanecarboxamide], the “Cold Sensation Threshold on Tongue” value is reported as 5 µg. For `Cc1ccc(NC(=O)C(C)(C(C)C)C(C)C)cc1C` [N-(3′,4′-dimethylphenyl)-2-isopropyl-2,3-dimethylbutyramide], the “Cold Sensation Threshold on Tongue” value was 3 µg. In the case of `Cc1ccc(C)c(NC(=O)C2C3CCC(C3)C2(C)C)c1` (stereo not drawn) [N-(2′,5′-dimethylphenyl)-3,3-dimethylbicyclo[2.2.1]heptane-2-carboxamide], the “Cold Sensation Threshold on Tongue” value is reported as 20 µg. In the case of `CC1CCC(C(C)C)C(C(=O)Nc2ccccc2)C1` (stereo not drawn) [N-phenyl-2-isopropyl-5-methylcyclohexanecarboxamide], the “Cold Sensation Threshold on Tongue” value is reported as 20 µg. With `Cc1ccc(C)c(NC(=O)C(C)(CC(C)C)C(C)C)c1` (stereo not drawn) [N-(2′,5′-dimethylphenyl)-2-isopropyl-2,4-dimethylpentanamide] the “Cold Sensation Threshold on Tongue” value was 5 µg. In the case of `Cc1ccc(NC(=O)C2(C(C)C)CCCCCC2)cc1O` [N-(3′-hydroxy-4′-methylphenyl)-1-isopropylcycloheptanecarboxamide], the “Cold Sensation Threshold on Tongue” value is reported as 1 µg. With `CCCCC1C2C=CC(C2)C1C(=O)Nc1ccc(OC)cc1C` (stereo not drawn) [N-(2′-methyl-4′-methoxyphenyl)-3-n-butylbicyclo[2.2.1]hept-5-ene-2-carboxamide] the “Cold Sensation Threshold on Tongue” value was 1 µg. With `CC1CCC(C(C)C)C(C(=O)Nc2ccc(F)cc2)C1` (stereo not drawn) [N-(4′-fluorophenyl)-2-isopropyl-5-methylcyclohexanecarboxamide] the “Cold Sensation Threshold on Tongue” value was 0.5 µg. In the case of `Cc1ccc(NC(=O)C2CC(C)CCC2C(C)C)c(C)c1` (stereo not drawn) [N-(2′,4′-dimethylphenyl)-2-isopropyl-5-methylcyclohexanecarboxamide], the “Cold Sensation Threshold on Tongue” value is reported as 0.1 µg. For `CC1CCC(C(C)C)C(C(=O)Nc2ccc(O)cc2)C1` (stereo not drawn) [N-(4′-hydroxyphenyl)-2-isopropyl-5-methylcyclohexanecarboxamide], the “Cold Sensation Threshold on Tongue” value was 1 µg. For `Cc1ccc(NC(=O)C(C)(C(C)C)C(C)C)c(C)c1` [N-(2′,4′-dimethylphenyl)-2-isopropyl-2,3-dimethylbutyramide], the “Cold Sensation Threshold on Tongue” value was 1 µg. With `Cc1ccc(NC(=O)C2CC(C)CCC2C(C)C)cc1O` (stereo not drawn) [N-(3′-hydroxy-4′-methylphenyl)-2-isopropyl-5-methylcyclohexanecarboxamide] the “Cold Sensation Threshold on Tongue” value was 0.1 µg. For `COc1ccc(NC(=O)C(C)(CC(C)C)C(C)C)cc1` (stereo not drawn) [N-(4′-methoxyphenyl)-2-isopropyl-2,4-dimethylpentanamide], the “Cold Sensation Threshold on Tongue” value was 2 µg. For `COc1ccc(NC(=O)C2C3CCC(C3)C2C(C)C)cc1` (stereo not drawn) [N-(4′-methoxyphenyl)-3-isopropylbicyclo[2.2.1]heptane-2-carboxamide], the “Cold Sensation Threshold on Tongue” value was 15 µg. With `COc1ccc(NC(=O)C2C3CCC(C3)C2(C)C)cc1` (stereo not drawn) [N-(4′-methoxyphenyl)-3,3-dimethylbicyclo[2.2.1]heptane-2-carboxamide] the “Cold Sensation Threshold on Tongue” value was 20 µg. In the case of `COc1ccc(NC(=O)C2C3C=CC(C3)C2CC(C)C)cc1` (stereo not drawn) [N-(4′-methoxyphenyl)-3-isobutylbicyclo[2.2.1]hept-5-ene-2-carboxamide], the “Cold Sensation Threshold on Tongue” value is reported as 4 µg. With `COc1ccc(NC(=O)C2C3C=CC(C3)C2CC(C)C)cc1O` (stereo not drawn) [N-(3′-hydroxy-4′-methoxyphenyl)-3-isobutylbicyclo[2.2.1]hept-5-ene-2-carboxamide] the “Cold Sensation Threshold on Tongue” value was 8 µg. For `COc1ccc(NC(=O)C2(C(C)C)CCCCCC2)c(C)c1` [N-(4′-methoxy-2′-methylphenyl)-1-isopropylcycloheptanecarboxamide], the “Cold Sensation Threshold on Tongue” value was 0.2 µg. In the case of `CC1CCC(C(C)C)C(C(=O)NCc2ccccc2)C1` (stereo not drawn) [N-phenylmethyl-2-isopropyl-5-methylcyclohexanecarboxamide], the “Cold Sensation Threshold on Tongue” value is reported as 20 µg. For `COc1ccc(NC(=O)C2CC(C)CCC2C(C)C)cc1` (stereo not drawn) [N-(4′-methoxyphenyl)-2-isopropyl-5-methylcyclohexanecarboxamide], the “Cold Sensation Threshold on Tongue” value was 0.1 µg. With `CC1CCC(C(C)C)C(C(=O)Nc2ccccc2O)C1` (stereo not drawn) [N-(2′-hydroxyphenyl)-2-isopropyl-5-methylcyclohexanecarboxamide] the “Cold Sensation Threshold on Tongue” value was 0.5 µg. In the case of `CCCCC1C2C=CC(C2)C1C(=O)Nc1ccc(OC)c(O)c1` (stereo not drawn) [N-(3′-hydroxy-4′-methoxyphenyl)-3-n-butylbicyclo[2.2.1]hept-5-ene-2-carboxamide], the “Cold Sensation Threshold on Tongue” value is reported as 5 µg.

Test system: not listed separately
Experiment: Threshold cooling effect of p-menthane carboxylic acid esters
Format: in vivo, human
Conditions: p-menthane-COOR esters
Source text: Neurophysiological and Molecular Mechanisms of Drug Action. The procedures described previously are used in drug screening. Experimentally there are additional methods to identify peripheral antinociceptive pharmacophore-compounds on sensory nerve endings. TRP receptors are present in sensory neurons. At the molecular level, the interactions of these peripheral antinociceptive pharmacophore-compounds with various TRP receptors can be characterized. The methods for such receptor studies were described by Laus et al. (Prostate tumor nucleotide compositions and methods of detection thereof. U.S. Pat. No. 6,194,152 B1, Feb. 27, 2001), and by Bevan et al. (Vanilloid receptor-related nucleic acids and polypeptides. U.S. 2003/0157633 A1, Aug. 21, 2003) and Julius et al. (Methods of modulating cold sensory perception. U.S. 2003/0219834 A1, Nov. 27, 2003), herein incorporated by reference. In the patent by Laus et al. it is noted that activation of trp-p8 by specific agonists of this receptor may also be utilized for the treatment of prostate disorders such prostate neoplasia. The use of peripheral antinociceptive pharmacophore-compounds of this discovery for prostate disorders is also contemplated in the present patent application. Identification of Pharmacophore. […] Based on this information, the pharmacophore precursor was selected and then the -ZR″ moiety was placed on the molecule to form the peripheral antinociceptive pharmacophore compounds of this discovery with desired pharmacokinetics and adequate delivery of pharmacophore to the target.
For `CCOC(=O)C(C)O` (stereo not drawn) [ethyl lactate], the “Threshold Cooling Effect” value was 50 µg. In the case of `OCC#CCO` [butyn-1,4-diol], the “Threshold Cooling Effect” value is reported as 6 µg. In the case of `OCCCO` [propan-1,3-diol], the “Threshold Cooling Effect” value is reported as 7 µg. For `CC(=O)OCCOC(=O)C1CC(C)CCC1C(C)C` (stereo not drawn) [2-acetoxoyethanol], the “Threshold Cooling Effect” value was 33 µg. In the case of `OCCO` [ethylene glycol], the “Threshold Cooling Effect” value is reported as 1.5 µg. For `CC(O)C(=O)O` (stereo not drawn) [lactic acid], the “Threshold Cooling Effect” value was 8 µg. In the case of `OCCOCCO` [diethylene glycol], the “Threshold Cooling Effect” value is reported as 1 µg. With `CC(O)CO` (stereo not drawn) [propylene glycol] the “Threshold Cooling Effect” value was 1.4 µg. In the case of `Cc1cc(O)cc(O)c1` [3,5-dihydroxytoluene], the “Threshold Cooling Effect” value is reported as 15 µg. For `CC(O)C(C)O` (stereo not drawn) [butan-2,3-diol], the “Threshold Cooling Effect” value was 3 µg. With `CC(C)(O)C(=O)O` [2-hydroxy-2-methylpropanoic acid] the “Threshold Cooling Effect” value was 20 µg. For `OC1CCCCC1O` (stereo not drawn) [cyclohexan-1,2-diol], the “Threshold Cooling Effect” value was 4 µg. With `OC[C@@H](O)[C@@H](O)[C@H](O)[C@@H](O)CO` [sorbitol] the “Threshold Cooling Effect” value was 50 µg. In the case of hexylene glycol, the “Threshold Cooling Effect” value is reported as 8 µg. In the case of `OCCCCO` [butan-1,4-diol], the “Threshold Cooling Effect” value is reported as 12 µg. For `OCC(O)CO` [glycerol], the “Threshold Cooling Effect” value was 1.2 µg. In the case of `OCCOCCOCCO` [triethylene glycol], the “Threshold Cooling Effect” value is reported as 5 µg. For `CC1CCC(C(C)C)C(C(=O)OCC(=O)O)C1` (stereo not drawn) [glycollic acid], the “Threshold Cooling Effect” value was 15 µg. In the case of `CC1(C)OCC(CO)O1` (stereo not drawn), the “Threshold Cooling Effect” value is reported as 11 µg.
